# Test results: paper PMC9886271 (Drug metabolism and pharmacokinetics, 2022)
# Entries after “also recorded” stand apart in the source; their conditions may differ. Structures can show the parent of a compound that is named as a salt.
# Legend:
# [1] = Tissue distribution after single i.v. injection; conditions: for rank order of the extent of exposure of the organs to the parent drug: i.v. administration; for Metabolite Tissue AUC0–8h, Brain / Metabolite Tissue AUC0–8h, Heart / Metabolite Tissue AUC0–8h, Kidney / Metabolite Tissue AUC0–8h, Liver / Metabolite Tissue AUC0–8h, Lung / Metabolite Tissue AUC0–8h, Spleen: after 2.0 mg/kg i.v. of the parent drug; for rank order of the extent of exposure of the organs to the metabolite: after i.v. parent drug
# [2] = system: mouse liver microsomes (MLM); conditions: MLM; for Vmax, best fit value: formation of EDDP/d6-EDDP, mean ± S.E.
# [3] = system: human liver microsomes (HLM); conditions: HLM; for Vmax, best fit value: formation of EDDP/d6-EDDP, mean ± S.E.
# [4] = system: postoperative mechanical hypersensitivity in mice; test: Postoperative pain model; conditions: post-operative treatment, 3 mg/kg i.p., once daily for 4 days; for effect on postoperative mechanical hypersensitivity: 3 mg/kg
# [5] = system: Swiss mice; conditions: intraperitoneal (i.p.); cited from earlier work
# [6] = In vivo toxicity, Up-and-Down method, single i.v. dose via tail vein; conditions: male, CD-1, mouse, iv
# [7] = male, CD-1, mouse, pH 7.4
# [8] = human, pH 7.4
# [9] = Plasma pharmacokinetics after single i.v. injection; conditions: for AUC0–8h (metabolite) / Cmax (metabolite) / Tmax (metabolite): metabolite in plasma after 2.0 mg/kg i.v. of the parent drug
Structure (SMILES),rank order of the extent of exposure of the organs to the parent drug [1],"Vmax, best fit value [2]","Vmax, best fit value [3]",effect on postoperative mechanical hypersensitivity [4],"Metabolite Tissue AUC0–8h, Brain [1]","Metabolite Tissue AUC0–8h, Heart [1] [ng·h/g]","Metabolite Tissue AUC0–8h, Kidney [1] [ng·h/g]","Metabolite Tissue AUC0–8h, Liver [1] [ng·h/g]","Metabolite Tissue AUC0–8h, Lung [1] [ng·h/g]","Metabolite Tissue AUC0–8h, Spleen [1] [ng·h/g]",rank order of the extent of exposure of the organs to the metabolite [1],AUC0–8h (metabolite) [9] [ng·h/mL],Cmax (metabolite) [9] [ng/mL],Tmax (metabolite) [9] [min],other results
"[2H]C([2H])([2H])CC(=O)C(CC(C)N(C([2H])([2H])[2H])C([2H])([2H])[2H])(c1ccccc1)c1ccccc1 (racemic) [d9-methadone, (±)-d9-methadone]",lungs > kidneys ≈ liver > spleen > heart > brain,1033 ± 45 pmol·min^−1·mg of protein^−1,438 ± 27 pmol·min^−1·mg of protein^−1,alleviated hypersensitivity after each systemic injection; also recorded: significantly relieved postoperative mechanical hypersensitivity,,,,,,,,,,,deuteration effect on Vmax (HVmax/DVmax) [2]: 2.5; deuteration effect on Vmax (HVmax/DVmax) [3]: 2.5; development of analgesic tolerance [4]: no development of the apparent analgesic tolerance
"CCC(=O)C(CC(C)N(C)C)(c1ccccc1)c1ccccc1 (racemic) [methadone, (±)-Methadone hydrochloride, reference compound]",kidneys ≈ lungs > spleen > liver > heart > brain,2631 ± 121 pmol·min^−1·mg of protein^−1,1116 ± 17 pmol·min^−1·mg of protein^−1,completely ineffective,,,,,,,,,,,LD50 [5]: 41 mg/kg; LD50 at 20 min [6]: 11.6 mg/kg; Km at 10 min [7]: 53.5 ± 5.1 µM; Km at 20 min [8]: 82.9 ± 3.7 µM; effect on postoperative mechanical hypersensitivity ([4]; listed as Methadone): unable to reduce the postoperative mechanical hypersensitivity
[2H]C([2H])([2H])C1CC(c2ccccc2)(c2ccccc2)C(=CC)N1C([2H])([2H])[2H] (stereo not drawn) [d6-EDDP],,,,,<LLOQ^§,1243 ± 254,1562 ± 207,4375 ± 513,9886 ± 614,411 ± 33,lungs > liver > kidney ≈ heart > spleen,138 ± 25,48 ± 7,19.8 ± 8.4,"concentration of the metabolite in the brain ([1]; after 2.0 mg/kg i.v. d9-methadone, every time point): below the lower limit of quantification; plasma AUC0–8h of d6-EDDP, fold lower than AUC0–8h of EDDP ([9]; after i.v. parent drug): 2 fold; plasma Cmax of d6-EDDP, fold lower than Cmax of EDDP ([9]; after i.v. parent drug): 5 fold"
"CC=C1N(C)C(C)CC1(c1ccccc1)c1ccccc1 (stereo not drawn) [EDDP, 2-ethylidene-1,5-dimethyl-3,3,-diphenylpyrrolidine]",,,,,8.96 ± 5.26 ng·h/g,2155 ± 144,2815 ± 226,5608 ± 218,9672 ± 856,622 ± 45,lungs > liver > kidney ≈ heart > spleen,257 ± 29,233 ± 28,8.4 ± 6,
